# Laboratory results taken from patent US20230250095A1, “BENZIMIDAZOLE DERIVATIVES, PREPARATION METHOD THEREFOR AND MEDICAL USE THEREOF” (TUOJIE BIOTECH(SHANGHAI) CO., LTD., priority 2020, published 2023).
# Molecular target: T1, hP2X3 (Homo sapiens, UniProt P56373)
# T1 construct: host or cells: 1321N1 cells
# T1 sequence (P56373 1-397): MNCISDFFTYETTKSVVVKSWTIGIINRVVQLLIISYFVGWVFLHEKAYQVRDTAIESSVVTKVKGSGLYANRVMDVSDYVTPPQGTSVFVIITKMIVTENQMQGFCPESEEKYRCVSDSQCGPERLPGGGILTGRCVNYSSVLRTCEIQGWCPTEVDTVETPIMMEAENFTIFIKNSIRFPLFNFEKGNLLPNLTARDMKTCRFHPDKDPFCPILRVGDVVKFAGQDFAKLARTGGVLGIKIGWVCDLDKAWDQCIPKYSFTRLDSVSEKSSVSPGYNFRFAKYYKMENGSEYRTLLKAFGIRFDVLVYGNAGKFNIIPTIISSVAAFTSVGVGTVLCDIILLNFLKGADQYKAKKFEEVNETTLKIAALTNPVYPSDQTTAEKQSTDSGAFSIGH
# Experiment: FLIPR calcium flux assay, antagonistic activity against hP2X3 receptor
# Assay type: cell-based
# Conditions: 1321N1/hP2X3 cells, agonist α,β-meATP 500 nM
# Experimental: (§1) The compounds were screened for antagonistic activity against hP2X3 and hP2X2/3 receptors (changes in calcium flux signals represent the effect of the compounds on ion channels) by an FLIPR assay.
# (§2) 1321N1 cells (adherent cells) stably transfected with hP2X3 and hP2X2/3 receptors were digested, centrifuged, resuspended in a plating medium (DMEM+10% DFBS) and counted, adjusted to 2×10^5 cells/mL. The cells were seeded in a 384-well assay plate at 50 μL/well, and incubated in an incubator at 37° C. with 5% CO2 for 16-24 h. Test compounds (20 mM DMSO stock solution) that were 180 times the desired concentration were prepared with DMSO, and added to a 384-well compound plate at 500 nL/well. Then, each well was supplemented with 30 μL of FLIPR buffer (lx HBSS containing 1.26 mM Ca^2++2 mM CaCl2)+20 mM HEPES), and the mixture was shaken for 20-40 min to be mixed well. The agonist α,β-meATP (final concentration of 500 nM for hP2X3 cells and final concentration of 1000 nM for hP2X2/3 cells) that was 3 times the desired concentration was prepared with an FLIPR buffer, and added to another 384-well compound plate at 35 μL/well. The cell plate in which cells had been plated and cultured for 16-24 h was taken out, and the cell supernatant was removed by pipetting. 30 μL of dye (FLIPR® calcium 4 assay kit, diluted with an FLIPR buffer) was added to each well, and the plate was incubated for 1 h. 15 μL of the compound was added to each well containing cells (dosing using an FLIPR instrument), and after 15 min, 22.5 μL of agonist was added to each well and the fluorescent signal was detected (excitation wavelength: 470-495 nm, emission wavelength: 515-575 nm). With the difference between the peak and the trough of the signal taken as the basic data, the data of the highest concentration of the positive drug taken as the 100% inhibition rate, and the data of DMSO taken as the 0% inhibition rate, the inhibition effect curves of the compounds were fitted on the software Graphpad Prism 6 and IC50 values were calculated.
row,IC50,Compound
1,45.3 nM,"CCC(=O)N1CCO[C@@H](Cn2c(-c3c(Cl)cc4c(c3F)OCC(=O)N4)nc3cc(C)ccc32)C1 [Compound 17, (S)-6-chloro-8-fluoro-7-(5-methyl-1-((4-propionylmorpholin-2-yl)methyl)-1H-benzo[d]imidazol-2-yl)-2H-benzo[b][1,4]oxazin-3(4H)-one]"
2,85.1 nM,"Cc1ccc2c(c1)nc(-c1c(F)cc(N3CCCC3=O)cc1Cl)n2C[C@H]1CN(C(=O)C2CC2)CCO1 [Compound 15, (S)-1-(3-chloro-4-(1-((4-(cyclopropylcarbonyl)morpholin-2-yl)methyl)-5-methyl-1H-benzo[d]imidazol-2-yl)-5-fluorophenyl)pyrrolidin-2-one]"
3,5840 nM,"CNC(=O)c1cc(F)c(-c2nc3nc(C)ccc3n2C[C@H]2CN(C(=O)OC)CCO2)c(F)c1 [Compound 7, Methyl (S)-2-((2-(2,6-difluoro-4-(methylcarbamoyl)phenyl)-5-methyl-1H-imidazo[4,5-b]pyridin-1-yl)methyl)morpholine-4-carboxylate]"
4,766 nM,"CC(=O)N1CCO[C@@H](Cn2c(-c3c(F)cc(N4CCCC4=O)cc3F)nc3cc(Cl)cc(F)c32)C1 [Compound 13, (S)-1-(4-(1-((4-acetylmorpholin-2-yl)methyl)-5-chloro-7-fluoro-1H-benzo[d]imidazol-2-yl)-3,5-difluorophenyl)pyrrolidin-2-one]"
5,> 10000 nM,"CNC(=O)c1cc(F)c(-c2nc3cc(C)cnc3n2C[C@H]2CN(C(=O)OC)CCO2)c(F)c1 [Compound 6, Methyl (S)-2-((2-(2,6-difluoro-4-(methylcarbamoyl)phenyl)-6-methyl-3H-imidazo[4,5-b]pyridin-3-yl)methyl)morpholine-4-carboxylate]"
6,70.5 nM,"Cc1ccc2c(c1)nc(-c1c(F)cc(N3CCCC3=O)cc1Cl)n2C[C@H]1CN(C(=O)CC(F)(F)F)CCO1 [Compound 16, (S)-1-(3-chloro-5-fluoro-4-(5-methyl-1-((4-(3,3,3-trifluoropropionyl)morpholin-2-yl)methyl)-1H-benzo[d]imidazol-2-yl)phenyl)pyrrolidin-2-one]"
7,> 10000 nM,"CNC(=O)c1cc(F)c(-c2nc3cc(C)ncc3n2C[C@H]2CN(C(=O)OC)CCO2)c(F)c1 [Compound 8, Methyl (S)-2-((2-(2,6-difluoro-4-(methylcarbamoyl)phenyl)-6-methyl-3H-imidazo[4,5-c]pyridin-3-yl)methyl)morpholine-4-carboxylate]"
8,100 nM,"CC(=O)N1CCO[C@@H](Cn2c(-c3c(F)cc(N4CCCC4=O)cc3F)nc3cc(C(F)F)ccc32)C1 [Compound 5, (S)-1-(4-(1-((4-acetylmorpholin-2-yl)methyl)-5-(difluoromethyl)-1H-benzo[d]imidazol-2-yl)-3,5-difluorophenyl)pyrrolidin-2-one]"
9,87.7 nM,"CC(=O)N1CCO[C@@H](Cn2c(-c3c(F)cc(N4CCCC4=O)cc3Cl)nc3cc(Cl)c(F)cc32)C1 [Compound 12, (S)-1-(4-(1-((4-acetylmorpholin-2-yl)methyl)-5-chloro-6-fluoro-1H-benzo[d]imidazol-2-yl)-3-chloro-5-fluorophenyl)pyrrolidin-2-one]"
10,79.4 nM,"CC(=O)N1CCO[C@@H](Cn2c(-c3c(F)cc(N4CCCC4=O)cc3Cl)nc3cc(C)c(F)cc32)C1 [Compound 11, (S)-1-(4-(1-((4-acetylmorpholin-2-yl)methyl)-6-fluoro-5-methyl-1H-benzo[d]imidazol-2-yl)-3-chloro-5-fluorophenyl)pyrrolidin-2-one]"

# Molecular target: T2, hP2X2/3 (Homo sapiens, UniProt P56373+Q9UBL9)
# T2 construct: host or cells: 1321N1 cells
# T2 sequence (Q9UBL9 1-471): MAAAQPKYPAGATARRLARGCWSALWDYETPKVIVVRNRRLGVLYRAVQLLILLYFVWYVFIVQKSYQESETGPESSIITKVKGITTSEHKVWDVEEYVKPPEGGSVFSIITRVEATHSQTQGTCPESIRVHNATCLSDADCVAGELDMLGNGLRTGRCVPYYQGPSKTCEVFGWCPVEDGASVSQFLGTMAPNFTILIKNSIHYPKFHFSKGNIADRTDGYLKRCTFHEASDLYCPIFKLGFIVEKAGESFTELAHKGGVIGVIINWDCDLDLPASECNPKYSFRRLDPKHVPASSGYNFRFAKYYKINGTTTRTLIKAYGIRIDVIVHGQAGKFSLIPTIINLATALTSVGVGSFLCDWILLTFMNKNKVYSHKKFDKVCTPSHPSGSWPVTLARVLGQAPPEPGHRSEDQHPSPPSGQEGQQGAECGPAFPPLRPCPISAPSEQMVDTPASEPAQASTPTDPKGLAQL
# T2 sequence (P56373 1-397): T1 sequence (P56373 1-397)
# Experiment: FLIPR calcium flux assay, antagonistic activity against hP2X2/3 receptor
# Assay type: cell-based
# Conditions: 1321N1/hP2X2/3 cells, agonist α,β-meATP 1000 nM
# Experimental: as §1, §2
row,IC50,Compound
1,3500 nM,"CCC(=O)N1CCO[C@@H](Cn2c(-c3c(Cl)cc4c(c3F)OCC(=O)N4)nc3cc(C)ccc32)C1 [Compound 17, (S)-6-chloro-8-fluoro-7-(5-methyl-1-((4-propionylmorpholin-2-yl)methyl)-1H-benzo[d]imidazol-2-yl)-2H-benzo[b][1,4]oxazin-3(4H)-one]"

# Tested on: not listed separately
# Experiment: In vitro metabolic stability in human hepatocytes
# Assay type: in vitro ADME
# Conditions: human hepatocytes 1×10^6 cells/mL, 37° C., up to 120 min; read-out: Intrinsic clearance (uL/min/10^6 cells)
# Experimental: The concentrations of the test compounds in the reaction system were determined by LC/MS/MS, so that the intrinsic clearance of the test compounds was calculated, and the in vitro metabolic stability in human hepatocytes was evaluated.
# 247.5 μL of a mixed solution of human hepatocytes at 1×10^6 cells/mL (purchased from BioreclamationIVT, Cat. No. S01205) and 2.5 μL of 100 μM test compound or positive control was added to a plate to initiate the reaction. The plate was incubated at 37° C. and 600 rpm. 20 μL of incubation system was transferred to a stop plate at 0.5 min, 5 min, 15 min, 30 min, 45 min, 60 min, 80 min, 100 min and 120 min. Then, the mixture was vortexed for 2 min to be mixed well. The stop plate was centrifuged at 4000 rpm for 20 min. 40 μL of supernatant of each compound was transferred to a 96-well sample template, after which 160 μL of pure water was added to dilute the samples.
# The resulting samples were quantified from ion chromatogram. The residual rate was calculated from the peak area of the test compound or the positive control. Slope k was determined by linear regression of the […] of residual rates versus incubation time using Microsoft Excel.
# Intrinsic clearance (in vitro CLint, μL/min/10^6 cells) was calculated from the slope value according to the following equation:
# V=incubation volume (0.25 mL);
# N=number of cells per well (0.25×10^6 cells)
row,hepatocyte CLint at 1 μM,Compound
1,4.1 µL/min/1e6 cells,"CCC(=O)N1CCO[C@@H](Cn2c(-c3c(Cl)cc4c(c3F)OCC(=O)N4)nc3cc(C)ccc32)C1 [Compound 17, (S)-6-chloro-8-fluoro-7-(5-methyl-1-((4-propionylmorpholin-2-yl)methyl)-1H-benzo[d]imidazol-2-yl)-2H-benzo[b][1,4]oxazin-3(4H)-one]"
